Experimental data taken from ChEMBL document CHEMBL3046316, “Synthesis and Acaricidal Activity of N-(1,3,4-Thiadiazol-2-yl)pyrazole-5-carboxamides and N-(1,3,4-Thiadiazol-2-yl)thiazole-5-carboxamides” (2003).

How the values were obtained:
Format in all cases: functional
[1] = tested on: Tetranychus urticae; assay: Acaricidal activity against Tetranychus urticae (two-spotted spider mite) assessed as mite mortality at 500 ppm relative to untreated control
[2] = tested on: Tetranychus urticae; assay: Acaricidal activity against Tetranychus urticae (two-spotted spider mite) assessed as mite mortality at 200 ppm relative to untreated control
[3] = tested on: Tetranychus urticae; assay: Acaricidal activity against Tetranychus urticae (two-spotted spider mite) assessed as mite mortality at 50 ppm relative to untreated control

For `Cn1nc(C(C)(C)C)c(Cl)c1C(=O)Nc1nnc(C(F)(F)C(F)(F)C(F)(F)C(F)(F)C(F)(F)C(F)(F)F)s1`, the mortality at 500 ppm [1] was < 80%.
In the case of `Cc1nc(C)c(C(=O)Nc2nnc(C(F)(F)C(F)(F)C(F)(F)F)s2)s1`, the mortality at 500 ppm [1] is reported as > 80%.
`Cn1nc(C(C)(C)C)c(Cl)c1C(=O)Nc1nnc(C(F)F)s1` was tested, and the mortality at 500 ppm [1] was < 80%.
`CCc1nn(C)c(C(=O)Nc2nnc(C(F)(F)F)s2)c1Cl` was tested, and the mortality at 200 ppm [2] was > 80%.
For `Cc1nn(C)c(C(=O)Nc2nnc(C(F)(F)F)s2)c1Cl`, the mortality at 200 ppm [2] was > 80%.
For `CCC(C)c1nn(C)c(C(=O)Nc2nnc(C(F)(F)F)s2)c1Cl` (stereo unspecified), the mortality at 200 ppm [2] was > 80%.
In the case of `Cn1nc(C(C)(C)C)c(Cl)c1C(=O)Nc1nnc(C(F)(F)C(F)F)s1`, the mortality at 500 ppm [1] is reported as < 80%.
For `CCCc1nn(C)c(C(=O)Nc2nnc(C(F)(F)F)s2)c1Cl`, the mortality at 200 ppm [2] was > 80%.
For `Cn1nc(C(C)(C)C)c(Cl)c1C(=O)Nc1nnc(C(F)(F)C(F)(F)C(F)(F)C(F)(F)C(F)(F)F)s1`, the mortality at 50 ppm [3] was > 80%.
`Cn1nc(C(C)(C)C)c(Cl)c1C(=O)Nc1nnc(C(F)(F)C(F)(F)F)s1` was tested, and the mortality at 50 ppm [3] was > 80%.
In the case of `Cc1nc(C(C)(C)C)sc1C(=O)Nc1nnc(C(F)(F)C(F)(F)C(F)(F)C(F)(F)F)s1`, the mortality at 50 ppm [3] is reported as > 80%.
In the case of `Cn1nc(C(C)(C)C)c(Cl)c1C(=O)Nc1nnc(C(F)(F)C(F)(F)C(F)(F)F)s1`, the mortality at 50 ppm [3] is reported as > 80%.
With `Cc1nc(C(C)(C)C)sc1C(=O)Nc1nnc(C(F)(F)F)s1` the mortality at 500 ppm [1] was < 80%.
In the case of `Cn1nc(C(C)(C)C)c(Br)c1C(=O)Nc1nnc(C(F)(F)F)s1`, the mortality at 200 ppm [2] is reported as > 80%.
With `Cc1nc(C(C)(C)C)sc1C(=O)Nc1nnc(C(F)(F)C(F)(F)F)s1` the mortality at 50 ppm [3] was > 80%.
`Cn1nc(C(C)(C)C)cc1C(=O)Nc1nnc(C(F)(F)F)s1` was tested, and the mortality at 500 ppm [1] was < 80%.
With `CC(C)c1nn(C)c(C(=O)Nc2nnc(C(F)(F)F)s2)c1Cl` the mortality at 200 ppm [2] was > 80%.
With `Cc1nc(C(C)(C)C)sc1C(=O)Nc1nnc(C(F)(F)C(F)(F)C(F)(F)F)s1` the mortality at 50 ppm [3] was > 80%.
In the case of `CCCCc1nn(C)c(C(=O)Nc2nnc(C(F)(F)F)s2)c1Cl`, the mortality at 500 ppm [1] is reported as > 80%.
In the case of `CC(C)Cc1nn(C)c(C(=O)Nc2nnc(C(F)(F)F)s2)c1Cl`, the mortality at 200 ppm [2] is reported as > 80%.
In the case of `Cc1nc(C(C)C)sc1C(=O)Nc1nnc(C(F)(F)C(F)(F)C(F)(F)F)s1`, the mortality at 500 ppm [1] is reported as < 80%.
In the case of `Cn1nc(C(C)(C)C)c(Cl)c1C(=O)Nc1nnc(C(F)(F)C(F)(F)C(F)(F)C(F)(F)F)s1`, the mortality at 50 ppm [3] is reported as > 80%.
For `Cn1nc(C2CC2)c(Cl)c1C(=O)Nc1nnc(C(F)(F)F)s1`, the mortality at 500 ppm [1] was > 80%.
For `CCc1nc(C)c(C(=O)Nc2nnc(C(F)(F)C(F)(F)C(F)(F)F)s2)s1`, the mortality at 500 ppm [1] was < 80%.
In the case of `Cn1nc(C(C)(C)C)c(Cl)c1C(=O)Nc1nnc(C(F)(F)F)s1`, the mortality at 50 ppm [3] is reported as > 80%.
For `Cn1nc(C(C)(C)C)c(I)c1C(=O)Nc1nnc(C(F)(F)F)s1`, the mortality at 500 ppm [1] was < 80%.
